We go through seven compounds from PubChem BioAssay AID248 (DTP/NCI, 2004).

The test system of the assay is L1210 leukemia ip in BDF1 mice, survival T/C. The assay can be described thus: NCI In Vivo Anticancer Drug Screen. Data for tumor model L1210 Leukemia (intraperitoneal) in B6D2F1 (BDF1) mice. Particulars: endpoint: mean survival time, higher = longer survival. An outline of the steps:
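Transplantable tumor model; survival measured in treated vs vehicle control mice. Value = treated/control.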

[1] abbreviates: dose: 100.0 mg/kg/injection, schedule: Q04DX003 (ip), vehicle: Klucel (hydroxypropylcellulose) (HPC).
[2] abbreviates: dose: 200.0 mg/kg/injection, schedule: Q04DX003 (ip), vehicle: Klucel (hydroxypropylcellulose) (HPC).
[3] abbreviates: dose: 400.0 mg/kg/injection, schedule: Q04DX003 (ip), vehicle: Klucel (hydroxypropylcellulose) (HPC).
Where [4] appears, read: dose: 100.0 mg/kg/injection, schedule: Q01DX009 (ip), vehicle: Klucel (hydroxypropylcellulose) (HPC).
Setting [5] is: dose: 200.0 mg/kg/injection, schedule: Q01DX009 (ip), vehicle: Klucel (hydroxypropylcellulose) (HPC).

SMILES strings stand for the structures. Values joined by “and” are separate entries in the source; they are usually repeats but may differ in a detail not shown here. Equal values may be shown once. Inconclusive results and toxic doses are left out.

Regarding `O=C(Nc1ccc(C2=NCCN2)cc1)Nc1cccc(NC(=O)Nc2ccc(C3=NCCN3)cc2)c1`, the T/C by setting is: (dose: 7.5 mg/kg/injection, schedule: Q01DX Z (ip), vehicle: carboxymethylcellulose (CMC)) 119 % of control; (dose: 7.5 mg/kg/injection, schedule: Q#A X Z (ip), vehicle: carboxymethylcellulose (CMC)) 180 % of control; (dose: 15.0 mg/kg/injection, schedule: Q01DX Z (ip), vehicle: carboxymethylcellulose (CMC)) 189 % of control; (dose: 15.0 mg/kg/injection, schedule: Q#A X Z (ip), vehicle: carboxymethylcellulose (CMC)) 215 % of control; (dose: 22.5 mg/kg/injection, schedule: Q03DX Z (ip), vehicle: carboxymethylcellulose (CMC)) 122 % of control; (dose: 30.0 mg/kg/injection, schedule: Q01DX Z (ip), vehicle: carboxymethylcellulose (CMC)) 206 % of control and 227 % of control and 315 % of control. Further, the T/C by setting is: (dose: 30.0 mg/kg/injection, schedule: Q01DX Z (sc), vehicle: carboxymethylcellulose (CMC)) 101 % of control and 107 % of control; (dose: 30.0 mg/kg/injection, schedule: Q#A X Z (ip), vehicle: carboxymethylcellulose (CMC)) 220 % of control; (dose: 60.0 mg/kg/injection, schedule: Q01DX004 (im), vehicle: olive oil, sesame oil, peanut oil) 92 % of control; (dose: 60.0 mg/kg/injection, schedule: Q01DX Z (ip), vehicle: carboxymethylcellulose (CMC)) 216 % of control and 255 % of control and 337 % of control; (dose: 60.0 mg/kg/injection, schedule: Q01DX Z (sc), vehicle: carboxymethylcellulose (CMC)) 97 % of control and 102 % of control; (dose: 60.0 mg/kg/injection, schedule: Q#A X Z (ip), vehicle: carboxymethylcellulose (CMC)) 234 % of control. The T/C was 98 % of control (dose: 62.5 mg/kg/injection, schedule: Q## X009 (oral), vehicle: saline); 280 % of control (dose: 74.0 mg/kg/injection, schedule: Q01DX Z (ip), vehicle: carboxymethylcellulose (CMC)); 227 % of control (dose: 90.0 mg/kg/injection, schedule: Q03DX Z (ip), vehicle: carboxymethylcellulose (CMC)); 102 % of control (dose: 120.0 mg/kg/injection, schedule: Q01DX004 (im), vehicle: olive oil, sesame oil, peanut oil); 225 % of control and 234 % of control and 331 % of control (dose: 120.0 mg/kg/injection, schedule: Q01DX Z (ip), vehicle: carboxymethylcellulose (CMC)); 98 % of control (dose: 120.0 mg/kg/injection, schedule: Q01DX Z (oral), vehicle: carboxymethylcellulose (CMC)). Further, the T/C was 101 % of control and 104 % of control (dose: 120.0 mg/kg/injection, schedule: Q01DX Z (sc), vehicle: carboxymethylcellulose (CMC)); 218 % of control (dose: 120.0 mg/kg/injection, schedule: Q#A X Z (ip), vehicle: carboxymethylcellulose (CMC)); 95 % of control (dose: 125.0 mg/kg/injection, schedule: Q## X010 (oral), vehicle: saline); 271 % of control (dose: 148.0 mg/kg/injection, schedule: Q01DX Z (ip), vehicle: carboxymethylcellulose (CMC)); 265 % of control (dose: 180.0 mg/kg/injection, schedule: Q03DX Z (ip), vehicle: carboxymethylcellulose (CMC)); 194 % of control (dose: 210.0 mg/kg/injection, schedule: Q07DX Z (ip), vehicle: carboxymethylcellulose (CMC)). For the same compound, the T/C (dose: 222.0 mg/kg/injection, schedule: Q01DX Z (ip), vehicle: carboxymethylcellulose (CMC)) was 204 % of control; the T/C (dose: 240.0 mg/kg/injection, schedule: Q01DX004 (im), vehicle: olive oil, sesame oil, peanut oil) is 101 % of control; the T/C (dose: 240.0 mg/kg/injection, schedule: Q01DX Z (ip), vehicle: carboxymethylcellulose (CMC)) is 223 % of control and 260 % of control and 309 % of control; the T/C (dose: 240.0 mg/kg/injection, schedule: Q01DX Z (oral), vehicle: carboxymethylcellulose (CMC)) was 97 % of control; the T/C (dose: 240.0 mg/kg/injection, schedule: Q01DX Z (sc), vehicle: carboxymethylcellulose (CMC)) was 95 % of control and 105 % of control; the T/C (dose: 240.0 mg/kg/injection, schedule: Q#A X Z (ip), vehicle: carboxymethylcellulose (CMC)) is 182 % of control. In addition, the T/C reads like this: (dose: 250.0 mg/kg/injection, schedule: Q## X010 (oral), vehicle: saline) 102 % of control; (dose: 300.0 mg/kg/injection, schedule: Q01DX001 (ip), vehicle: carboxymethylcellulose (CMC)) 172 % of control; (dose: 333.0 mg/kg/injection, schedule: Q01DX Z (ip), vehicle: carboxymethylcellulose (CMC)) 178 % of control; (dose: 360.0 mg/kg/injection, schedule: Q03DX Z (ip), vehicle: carboxymethylcellulose (CMC)) 253 % of control; (dose: 420.0 mg/kg/injection, schedule: Q07DX Z (ip), vehicle: carboxymethylcellulose (CMC)) 190 % of control; (dose: 480.0 mg/kg/injection, schedule: Q01DX004 (im), vehicle: olive oil, sesame oil, peanut oil) 106 % of control. The T/C runs as follows: (dose: 480.0 mg/kg/injection, schedule: Q01DX Z (ip), vehicle: carboxymethylcellulose (CMC)) 177 % of control and 215 % of control; (dose: 480.0 mg/kg/injection, schedule: Q01DX Z (oral), vehicle: carboxymethylcellulose (CMC)) 97 % of control; (dose: 480.0 mg/kg/injection, schedule: Q01DX Z (sc), vehicle: carboxymethylcellulose (CMC)) 105 % of control and 108 % of control; (dose: 500.0 mg/kg/injection, schedule: Q01DX Z (ip), vehicle: carboxymethylcellulose (CMC)) 156 % of control; (dose: 500.0 mg/kg/injection, schedule: Q## X009 (oral), vehicle: saline) 98 % of control; (dose: 720.0 mg/kg/injection, schedule: Q03DX Z (ip), vehicle: carboxymethylcellulose (CMC)) 252 % of control. Further, the T/C by setting is: (dose: 840.0 mg/kg/injection, schedule: Q07DX Z (ip), vehicle: carboxymethylcellulose (CMC)) 227 % of control; (dose: 960.0 mg/kg/injection, schedule: Q01DX Z (oral), vehicle: carboxymethylcellulose (CMC)) 97 % of control; (dose: 1440.0 mg/kg/injection, schedule: Q03DX Z (ip), vehicle: carboxymethylcellulose (CMC)) 231 % of control; (dose: 1680.0 mg/kg/injection, schedule: Q07DX Z (ip), vehicle: carboxymethylcellulose (CMC)) 239 % of control; (dose: 1920.0 mg/kg/injection, schedule: Q01DX Z (oral), vehicle: carboxymethylcellulose (CMC)) 98 % of control; (dose: 3360.0 mg/kg/injection, schedule: Q07DX Z (ip), vehicle: carboxymethylcellulose (CMC)) 300 % of control.
For `CC1=NN(c2ccc(S(=O)(=O)O)cc2)C(=O)/C1=C/C(C#N)C#N`, the T/C (dose: 50.0 mg/kg/injection, schedule: Q01DX001 (ip), vehicle: saline) is 105 % of control; the T/C (dose: 100.0 mg/kg/injection, schedule: Q01DX001 (ip), vehicle: saline) is 98 % of control; the T/C under setting [1] is 92 % of control; the T/C (dose: 200.0 mg/kg/injection, schedule: Q01DX001 (ip), vehicle: saline) was 108 % of control; the T/C under setting [2] is 105 % of control; the T/C (dose: 400.0 mg/kg/injection, schedule: Q01DX001 (ip), vehicle: saline) was 108 % of control. Further, the T/C under setting [3] is 94 % of control.
Take `COc1ccc(C(=O)c2ccc(C)cc2)cc1`: the T/C by setting is: under setting [4], 102 % of control; under setting [1], 95 % of control; under setting [5], 105 % of control; under setting [2], 101 % of control; (dose: 400.0 mg/kg/injection, schedule: Q01DX009 (ip), vehicle: Klucel (hydroxypropylcellulose) (HPC)) 96 % of control; under setting [3], 102 % of control.
With `COCC(COC)CC1CO1` (stereo not given), the T/C by setting is: (dose: 50.0 mg/kg/injection, schedule: Q01DX009 (ip), vehicle: saline with Tween-80) 96 % of control; (dose: 100.0 mg/kg/injection, schedule: Q01DX009 (ip), vehicle: saline with Tween-80) 100 % of control; (dose: 200.0 mg/kg/injection, schedule: Q01DX009 (ip), vehicle: saline with Tween-80) 96 % of control.
As for `NCCCCCCN` (tested in a mixture with another compound), the T/C is, setting by setting: (dose: 3.0 mg/kg/injection, schedule: Q01DX009 (ip), vehicle: acid diluted with saline) 101 % of control; (dose: 3.0 mg/kg/injection, schedule: Q04DX003 (ip), vehicle: acid diluted with saline) 104 % of control; (dose: 6.0 mg/kg/injection, schedule: Q01DX009 (ip), vehicle: acid diluted with saline) 108 % of control; (dose: 6.0 mg/kg/injection, schedule: Q04DX003 (ip), vehicle: acid diluted with saline) 89 % of control; (dose: 12.0 mg/kg/injection, schedule: Q04DX003 (ip), vehicle: acid diluted with saline) 106 % of control.
With `O=C(O)c1c(Br)c(Br)c(Br)c(Br)c1C(=O)Nc1ccccc1F`, the T/C is 93 % of control under setting [4] and 96 % of control under setting [5].
As for `CCCCCCCCCCCCCCCCOc1ccc(S(=O)(=O)c2ccccc2)cc1[N+](=O)[O-]`, the T/C under setting [1] is 91 % of control; the T/C under setting [2] was 94 % of control; the T/C (dose: 400.0 mg/kg/injection, schedule: Q01DX009 (ip), vehicle: saline sonified) was 96 % of control; the T/C under setting [3] is 96 % of control.
